The values below come from PubChem BioAssay (NCI).

Structures are written as SMILES.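 Step 1: Grow cells in 96-well plates. Step 2: Expose to compound for 48 hours at 5 concentrations. Step 3: Interpolate endpoints linearly; if unreached, use highest concentration. The concentration for 50% growth inhibition is given as GI50. The concentration for full growth arrest is given as TGI.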

Test systems include TK-10 renal; OVCAR-4 ovarian; IGROV1 ovarian; SF-539 CNS; EKVX NSCLC; 786-0 renal; HOP-92 NSCLC; HL-60(TB) leukemia; U251 CNS; HCT-15 colon.
Common to all, as to test: NCI anticancer screen, dose series, 48 h

`Nc1ccc(N)c2c1C(=O)c1cccc([N+](=O)[O-])c1C2=O`: the GI50 was 3.21 µM in the experiment with TK-10 renal; 11.9 µM in the experiment with OVCAR-4 ovarian; 3.92 µM in the experiment with IGROV1 ovarian; 1.92 µM with SF-539 CNS; 7.72 µM with EKVX NSCLC; 2.72 µM in the experiment with 786-0 renal. In addition, the GI50 with HOP-92 NSCLC is 16.3 µM; in the experiment on HL-60(TB) leukemia, 3.65 µM; in the experiment on U251 CNS, 2.85 µM; with HCT-15 colon it was 2.16 µM. Besides, the TGI in the experiment with TK-10 renal is greater than 71.8 µM; with OVCAR-4 ovarian, greater than 100 µM; in the experiment with IGROV1 ovarian it was greater than 100 µM; in the experiment on SF-539 CNS, greater than 22.4 µM; in the experiment on EKVX NSCLC, greater than 100 µM; with 786-0 renal it was 32.1 µM. The TGI in the experiment with HOP-92 NSCLC is greater than 100 µM; with HL-60(TB) leukemia, greater than 41.1 µM; with U251 CNS, greater than 100 µM; with HCT-15 colon, greater than 100 µM.
Consider `CC(C)c1nc(Cl)c(Cl)c(Cl)n1`, for which the TGI in the experiment on TK-10 renal worked out at 28.8 µM; in the experiment on OVCAR-4 ovarian, 39.1 µM; with IGROV1 ovarian, 19.5 µM; with SF-539 CNS it was 25.2 µM; with EKVX NSCLC, 29.1 µM; with 786-0 renal it was 16.1 µM. The TGI in the experiment on HOP-92 NSCLC amounted to 14.2 µM; in the experiment on HL-60(TB) leukemia, 5.4 µM; with U251 CNS it was 12.8 µM; in the experiment on HCT-15 colon, 17.7 µM.
